# Biological target: human F508del-CFTR (Homo sapiens, UniProt P13569, DEL508-508)
# Test: F508del-CFTR cell surface expression (corrector activity), DiscoveRx ß-galactosidase complementation chemiluminescence assay in recombinant U2OS cell line;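 note: U2OS cells co-expressing ProLink-tagged F508del-CFTR and a membrane-anchored enzyme acceptor, where more surface CFTR restores β-galactosidase activity measured by chemiluminescence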
# Conditions: for EC50: EC50, F508del-CFTR cell surface expression; for Emax: U2OS
# [1] = U2OS cells, 16h compound incubation, geomean values
# [2] = in relation to Emax of corrector lumacaftor (=100%), arithmetic mean values
# [3] = U2OS cell line, 16h compound incubation, geomean values
# [4] = in relation to the Emax of the corrector lumacaftor (=100%), U2OS cell line, 16h compound incubation, arithmetic mean values
# [5] = U2OS cells, 16h compound incubation, geomean of several measurements
# [6] = in relation to the Emax of the corrector lumacaftor (=100%), U2OS cells, 16h compound incubation, arithmetic mean
# Chain of human F508del-CFTR (P13569 with tags, fused parts or gaps DEL508-508): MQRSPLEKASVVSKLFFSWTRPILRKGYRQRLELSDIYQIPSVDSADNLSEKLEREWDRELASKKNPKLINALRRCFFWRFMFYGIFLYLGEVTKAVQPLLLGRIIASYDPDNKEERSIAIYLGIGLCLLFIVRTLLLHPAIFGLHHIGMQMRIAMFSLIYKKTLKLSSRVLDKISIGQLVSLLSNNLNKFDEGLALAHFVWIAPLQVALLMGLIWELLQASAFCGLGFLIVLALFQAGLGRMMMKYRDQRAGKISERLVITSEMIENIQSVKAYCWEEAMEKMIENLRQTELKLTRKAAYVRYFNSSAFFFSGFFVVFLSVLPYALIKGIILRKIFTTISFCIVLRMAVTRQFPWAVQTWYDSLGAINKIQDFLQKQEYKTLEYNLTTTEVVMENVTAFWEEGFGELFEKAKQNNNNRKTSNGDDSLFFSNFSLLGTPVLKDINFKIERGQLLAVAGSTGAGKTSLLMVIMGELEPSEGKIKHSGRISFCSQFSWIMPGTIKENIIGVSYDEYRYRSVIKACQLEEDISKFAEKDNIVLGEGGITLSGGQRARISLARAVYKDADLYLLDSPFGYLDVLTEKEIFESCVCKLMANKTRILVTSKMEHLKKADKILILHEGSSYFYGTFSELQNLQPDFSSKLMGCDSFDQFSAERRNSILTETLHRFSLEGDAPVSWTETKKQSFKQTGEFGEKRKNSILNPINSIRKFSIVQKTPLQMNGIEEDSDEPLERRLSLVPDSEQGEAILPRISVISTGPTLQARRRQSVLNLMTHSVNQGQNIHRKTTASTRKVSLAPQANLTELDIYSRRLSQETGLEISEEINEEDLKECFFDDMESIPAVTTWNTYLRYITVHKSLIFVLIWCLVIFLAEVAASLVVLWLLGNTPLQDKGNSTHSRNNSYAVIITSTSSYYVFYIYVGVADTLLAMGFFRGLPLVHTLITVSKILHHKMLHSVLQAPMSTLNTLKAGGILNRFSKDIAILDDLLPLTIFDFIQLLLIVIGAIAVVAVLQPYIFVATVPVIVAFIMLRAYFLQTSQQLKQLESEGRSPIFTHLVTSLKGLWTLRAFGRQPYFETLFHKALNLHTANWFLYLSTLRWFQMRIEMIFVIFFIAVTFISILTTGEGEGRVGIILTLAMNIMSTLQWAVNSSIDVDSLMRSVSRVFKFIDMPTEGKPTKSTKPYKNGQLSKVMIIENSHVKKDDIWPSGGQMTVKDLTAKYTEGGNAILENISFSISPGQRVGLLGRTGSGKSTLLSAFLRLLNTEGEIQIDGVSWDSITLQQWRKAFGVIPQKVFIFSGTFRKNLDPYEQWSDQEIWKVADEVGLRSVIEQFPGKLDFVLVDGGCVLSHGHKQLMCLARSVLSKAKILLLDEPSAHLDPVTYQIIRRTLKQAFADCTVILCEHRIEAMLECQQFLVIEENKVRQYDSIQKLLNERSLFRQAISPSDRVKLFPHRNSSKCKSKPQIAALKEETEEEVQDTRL
SMILES,EC50 [1] [nM],Emax [2] [%],also measured
"COc1cccc2c1C(=O)N[C@H](C(=O)NCCc1noc(C3CC3)n1)CC(=O)N(C)[C@@H](CC(C)C)C(=O)N(C)[C@H](Cc1nc(-c3ccc(F)cn3)no1)C(=O)N[C@H](Cc1ccccc1)CO2 [Example 782, (3R,6R,9S,13S)-3-benzyl-N-(2-(5-cyclopropyl-1,2,4-oxadiazol-3-yl)ethyl)-6-((3-(5-fluoropyridin-2-yl)-1,2,4-oxadiazol-5-yl)methyl)-9-isobutyl-16-methoxy-7,10-dimethyl-5,8,11,15-tetraoxo-2,3,4,5,6,7,8,9,10,11,12,13,14,15-tetradecahydropyrido[3,4-p][1]oxa[4,7,10,14]tetraazacycloheptadecine-13-carboxamide]",859,439,
COc1cccc(CCNC(=O)[C@@H]2CC(=O)N(C)[C@@H](CC(C)C)C(=O)N(C)CC(=O)N[C@H](Cc3ccccc3)COc3ccc4cnccc4c3C(=O)N2)c1 [Example 465],800,387,
"Cc1ccc2c(c1)OC[C@@H](Cc1ccccc1)NC(=O)CN(C)C(=O)[C@H](CC(C)C)N(C)C(=O)C[C@@H](C(=O)NCCc1ccc3c(c1)OCO3)NC2=O [Example 583, (3R,9S,13S)-N-(2-(benzo[d][1,3]dioxol-5-yl)ethyl)-3-benzyl-9-isobutyl-7,10,18-trimethyl-5,8,11,15-tetraoxo-2,3,4,5,6,7,8,9,10,11,12,13,14,15-tetradecahydrobenzo[p][1]oxa[4,7,10,14]tetraazacycloheptadecine-13-carboxamide]",339,90,
"COc1nccc2c1C(=O)N[C@H](C(=O)NCCc1noc(C3CC3)n1)CC(=O)N(C)[C@@H](CC(C)C)C(=O)N(C)[C@H](CC1CCC(F)(F)CC1)C(=O)N[C@H](Cc1ccccc1)CO2 [Example 558, (3R,6R,9S,13S)-3-benzyl-N-(2-(5-cyclopropyl-1,2,4-oxadiazol-3-yl)ethyl)-6-((4,4-difluorocyclohexyl)methyl)-9-isobutyl-16-methoxy-7,10-dimethyl-5,8,11,15-tetraoxo-2,3,4,5,6,7,8,9,10,11,12,13,14,15-tetradecahydropyrido[3,4-p][1]oxa[4,7,10,14]tetraazacycloheptadecine-13-carboxamide]",167,355,
"CCc1ccc(CCNC(=O)[C@@H]2CC(=O)N(C)[C@@H](CC(C)C)C(=O)N(CCC3CCCCC3)CC(=O)N[C@H](Cc3ccccc3)COc3cccc(OC)c3C(=O)N2)cc1 [Example 215, (3R,9S,13S)-3-benzyl-7-(2-cyclohexylethyl)-N-(4-ethylphenethyl)-9-isobutyl-16-methoxy-10-methyl-5,8,11,15-tetraoxo-2,3,4,5,6,7,8,9,10,11,12,13,14,15-tetradecahydrobenzo[p][1]oxa[4,7,10,14]tetraazacycloheptadecine-13-carboxamide]",,,EC50 [3]: 214 nM; Emax [4]: 172%
"Cc1cc(CCNC(=O)[C@@H]2CC(=O)N(C)[C@@H](CC(C)C)C(=O)N(CC[C@@H]3CCCCO3)CC(=O)N[C@H](Cc3csc4ccccc34)COc3cnc4ccccc4c3C(=O)N2)on1 [Example 703, (3S,7S,13R)-13-(benzo[b]thiophen-3-ylmethyl)-7-isobutyl-6-methyl-N-(2-(3-methylisoxazol-5-yl)ethyl)-1,5,8,11-tetraoxo-9-(2-((S)-tetrahydro-2H-pyran-2-yl)ethyl)-1,2,3,4,5,6,7,8,9,10,11,12,13,14-tetradecahydro-[1]oxa[4,7,10,14]tetraazacycloheptadecino[17,16-c]quinoline-3-carboxamide]",316,167,
"COc1cc(CCNC(=O)[C@@H]2CC(=O)N(C)[C@@H](CC(C)C)C(=O)N(C)[C@H](CC(C)(C)C)C(=O)N[C@H](Cc3ccccc3)COc3cc(C)nc(OC)c3C(=O)N2)on1 [Example 878, (3R,6R,9S,13S)-3-benzyl-9-isobutyl-16-methoxy-N-(2-(3-methoxyisoxazol-5-yl)ethyl)-7,10,18-trimethyl-6-neopentyl-5,8,11,15-tetraoxo-2,3,4,5,6,7,8,9,10,11,12,13,14,15-tetradecahydropyrido[3,4-p][1]oxa[4,7,10,14]tetraazacycloheptadecine-13-carboxamide]",,,EC50 [5]: 27 nM; Emax [6]: 336%
"CC(C)C[C@H]1C(=O)N(CCOC(C)(C)C)CC(=O)N[C@H](Cc2ccccc2)COc2ccc3ccccc3c2C(=O)N[C@H](C(=O)NCCc2ccc3c(c2)OCO3)CC(=O)N1C [Example 335, (3S,7S,13R)-N-(2-(benzo[d][1,3]dioxol-5-yl)ethyl)-13-benzyl-9-(2-(tert-butoxy)ethyl)-7-isobutyl-6-methyl-1,5,8,11-tetraoxo-1,2,3,4,5,6,7,8,9,10,11,12,13,14-tetradecahydronaphtho[1,2-p][1]oxa[4,7,10,14]tetraazacycloheptadecine-3-carboxamide]",,,EC50 [3]: 270 nM; Emax [4]: 262%
"CC(C)C[C@H]1C(=O)N2CCOC[C@@H]2C(=O)N[C@H](Cc2ccccc2)COc2cnc3ccccc3c2C(=O)N[C@H](C(=O)NCCc2cccc(-n3nccn3)c2)CC(=O)N1C [Example 56, (9S,13S,19aR,22R)-N-(3-(2H-1,2,3-triazol-2-yl)phenethyl)-22-benzyl-13-isobutyl-12-methyl-7,11,14,20-tetraoxo-7,8,9,10,11,12,13,14,16,17,19,19a,20,21,22,23-hexadecahydro-[1,4]oxazino[3′,4′:6,7][1]oxa[4,7,10,14]tetraazacycloheptadecino[17,16-c]quinoline-9-carboxamide]",,,EC50 [3]: 764 nM; Emax [4]: 256%
"CC(C)C[C@H]1C(=O)N2CCCC[C@@H]2C(=O)N[C@H](Cc2ccccc2)COc2cnc3ccccc3c2C(=O)N[C@H](C(=O)NCCc2cc(C(F)(F)F)no2)CC(=O)N1C [Example 559, (9S,13S,19aR,22R)-22-benzyl-13-isobutyl-12-methyl-7,11,14,20-tetraoxo-N-(2-(3-(trifluoromethyl)isoxazol-5-yl)ethyl)-7,8,9,10,11,12,13,14,17,18,19,19a,20,21,22,23-hexadecahydro-16H-pyrido[2′,1′:6,7][1]oxa[4,7,10,14]tetraazacycloheptadecino[17,16-c]quinoline-9-carboxamide]",155,236,
"CC(C)C[C@H]1C(=O)N2CCCC[C@H]2C(=O)N[C@H](Cc2ccccc2)COc2ccncc2C(=O)N[C@H](C(=O)NCCc2ccc3c(c2)OCC3)CC(=O)N1C [Example 592, (7S,11S,17aS,20R)-20-benzyl-N-(2-(2,3-dihydrobenzofuran-6-yl)ethyl)-11-isobutyl-10-methyl-5,9,12,18-tetraoxo-5,6,7,8,9,10,11,12,15,16,17,17a,18,19,20,21-hexadecahydro-14H-dipyrido[2,1-f:3′,4′-p][1]oxa[4,7,10,14]tetraazacycloheptadecine-7-carboxamide]",881,119,
"COc1cc(CCNC(=O)[C@@H]2CC(=O)N(C)[C@@H](CC(C)C)C(=O)N(C)C3(CC3)C(=O)N[C@H](Cc3ccccc3)COc3cnc4ccccc4c3C(=O)N2)on1 [Example 686, (3′S,7′S,13′R)-13′-benzyl-7′-isobutyl-N-(2-(3-methoxyisoxazol-5-yl)ethyl)-6′,9′-dimethyl-1′,5′,8′,11′-tetraoxo-2′,3′,4′,5′,6′,7′,8′,9′,11′,12′,13′,14′-dodecahydro-1′H-spiro[cyclopropane-1,10′-[1]oxa[4,7,10,14]tetraazacycloheptadecino[17,16-c]quinoline]-3′-carboxamide]",436,332,
COc1cccc(CCNC(=O)[C@@H]2CC(=O)N(C)[C@@H](CC(C)C)C(=O)N(CC[C@H]3CCCCO3)CC(=O)N[C@H](Cc3ccccc3)COc3cccc(OC)c3C(=O)N2)c1 (racemic) [Example 310],,,EC50 [3]: 788 nM; Emax [4]: 202%
"Cc1cc(CCNC(=O)[C@@H]2CC(=O)N(C)[C@@H](CC(C)C)C(=O)N(C)[C@@H](CO)C(=O)N[C@H](Cc3ccccc3)COc3ccc4ccccc4c3C(=O)N2)on1 (racemic) [Example 720, (3S,7S,10RS,13R)-13-benzyl-10-(hydroxymethyl)-7-isobutyl-6,9-dimethyl-N-(2-(3-methylisoxazol-5-yl)ethyl)-1,5,8,11-tetraoxo-1,2,3,4,5,6,7,8,9,10,11,12,13,14-tetradecahydronaphtho[1,2-p][1]oxa[4,7,10,14]tetraazacycloheptadecine-3-carboxamide]",881,24,
"CC(C)C[C@H]1C(=O)N2CCCC[C@@H]2C(=O)N[C@H](Cc2ccccc2)COc2ccc3ncccc3c2C(=O)N[C@H](C(=O)NCCc2noc(C3CC3)n2)CC(=O)N1C [Example 486, (9S,13S,19aR,22R)-22-benzyl-N-(2-(5-cyclopropyl-1,2,4-oxadiazol-3-yl)ethyl)-13-isobutyl-12-methyl-7,11,14,20-tetraoxo-7,8,9,10,11,12,13,14,17,18,19,19a,20,21,22,23-hexadecahydro-16H-pyrido[2′,11:6,7][1]oxa[4,7,10,14]tetraazacycloheptadecino[16,17-f]quinoline-9-carboxamide]",201,303,
"COCCCNC(=O)[C@@H]1CC(=O)N(C)[C@@H](CC(C)C)C(=O)N(C)[C@H](Cc2nc(-c3ccc(F)cn3)no2)C(=O)N[C@H](Cc2ccccc2)COc2cnc3ccc(F)cc3c2C(=O)N1 [Example 845, (3S,7S,10R,13R)-13-benzyl-20-fluoro-10-((3-(5-fluoropyridin-2-yl)-1,2,4-oxadiazol-5-yl)methyl)-7-isobutyl-N-(3-methoxypropyl)-6,9-dimethyl-1,5,8,11-tetraoxo-1,2,3,4,5,6,7,8,9,10,11,12,13,14-tetradecahydro-[1]oxa[4,7,10,14]tetraazacycloheptadecino[17,16-c]quinoline-3-carboxamide]",,,EC50 [5]: 453 nM; Emax [6]: 308%

# Reference: patent publication US20240208992A1, “MACROCYCLES AS CFTR MODULATORS” (Idorsia Pharmaceuticals Ltd, priority 2021, published 2024)
